Reference: ChEMBL document CHEMBL1201862, “PubChem BioAssay data set” (2004)
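Test compounds were applied to cells in 96-well plates for 48 hours at 5 doses. At the GI50, growth is halved.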 Activity calls are given as the source filed them. No stated cut-off is given here; in the data, active = GI50 up to about 1.1 µM and inactive = higher.

Columns and labels:
Assay in all cases: DTP human tumour cell line panel, 48 h
[1] = tested on: RXF 393
[2] = tested on: UO-31
[3] = tested on: MDA-MB-435
[4] = tested on: U-251
[5] = tested on: K562
[6] = tested on: SW-620
[7] = tested on: NCI-H460
[8] = tested on: Hs-578T
[9] = tested on: SF-295
[10] = tested on: IGROV-1
[11] = tested on: LOX IMVI
[12] = tested on: HCT-15
[13] = tested on: OVCAR-5
[14] = tested on: NCI-H522
[15] = tested on: ACHN
[16] = tested on: BT-549
[17] = tested on: NCI/ADR-RES
[18] = tested on: M14
[19] = tested on: HOP-62

## COC(=O)c1ccc(C)cc1/C=C1\Cc2ccc(C)cc2C1=O
[1]
  GI50: 14.7 µM (inactive)
[2]
  GI50: 11 µM (inactive)
[3]
  GI50: 4.28 µM (inactive)
[4]
  GI50: 12.6 µM (inactive)
[5]
  GI50: 6.58 µM (inactive)
[6]
  GI50: 19.5 µM (inactive)
[7]
  GI50: 40.2 µM (inactive)
[8]
  GI50: 23.1 µM (inactive)
[9]
  GI50: 15.3 µM (inactive)
[10]
  GI50: 10.4 µM (inactive)
[11]
  GI50: 12.9 µM (inactive)
[12]
  GI50: 13 µM
[13]
  GI50: 15.9 µM (inactive)
[14]
  GI50: 17.1 µM (inactive)
[15]
  GI50: 30.8 µM (inactive)
[16]
  GI50: 4.91 µM (inactive)
[17]
  GI50: 29.4 µM (inactive)
[18]
  GI50: 16.1 µM (inactive)
[19]
  GI50: 15.5 µM (inactive)

## O=C(O)CCN(CCC(=O)O)c1ccc(/C=C2\SC(=S)NC2=O)cc1
[1]
  GI50: > 100 µM (inactive)
[2]
  GI50: > 100 µM (inactive)
[3]
  GI50: > 100 µM (inactive)
[4]
  GI50: > 100 µM (inactive)
[5]
  GI50: > 100 µM (inactive)
[6]
  GI50: > 100 µM (inactive)
[7]
  GI50: > 100 µM (inactive)
[8]
  GI50: > 100 µM (inactive)
[9]
  GI50: > 100 µM (inactive)
[10]
  GI50: > 100 µM (inactive)
[11]
  GI50: > 100 µM (inactive)
[12]
  GI50: > 100 µM
[13]
  GI50: > 100 µM (inactive)
[14]
  GI50: 91.6 µM (inactive)
[15]
  GI50: > 100 µM (inactive)
[16]
  GI50: > 100 µM (inactive)
[17]
  GI50: > 100 µM (inactive)
[18]
  GI50: > 100 µM (inactive)
[19]
  GI50: > 100 µM (inactive)

## O=P1(Cc2ccccc2)N(Cc2ccccc2)[C@@H]2CCCC[C@H]2N1Cc1ccccc1
[1]
  GI50: 9.51 µM (inactive)
[2]
  GI50: 6.52 µM (inactive)
[3]
  GI50: 5.96 µM (inactive)
[4]
  GI50: 11.1 µM (inactive)
[5]
  GI50: 5 µM (inactive)
[6]
  GI50: 10.1 µM (inactive)
[7]
  GI50: 8.07 µM (inactive)
[8]
  GI50: 10.7 µM (inactive)
[9]
  GI50: 6.59 µM (inactive)
[10]
  GI50: 6.18 µM (inactive)
[11]
  GI50: 12.2 µM (inactive)
[12]
  GI50: 9.91 µM
[13]
  GI50: 11.6 µM (inactive)
[14]
  GI50: 3.97 µM (inactive)
[15]
  GI50: 12.4 µM (inactive)
[16]
  GI50: 17.7 µM (inactive)
[17]
  GI50: 5.85 µM (inactive)
[18]
  GI50: 4.34 µM (inactive)
[19]
  GI50: 15.5 µM (inactive)

## CC1(C)S[C@@H]2[C@H](NC(=O)C3(N)CCCCC3)C(=O)N2[C@H]1C(=O)O [CYCLACILLIN]
[1]
  GI50: > 100 µM (inactive)
[2]
  GI50: > 100 µM (inactive)
[3]
  GI50: > 100 µM (inactive)
[4]
  GI50: > 100 µM (inactive)
[5]
  GI50: > 100 µM (inactive)
[6]
  GI50: > 100 µM (inactive)
[7]
  GI50: > 100 µM (inactive)
[8]
  GI50: > 100 µM (inactive)
[9]
  GI50: > 100 µM (inactive)
[10]
  GI50: > 100 µM (inactive)
[11]
  GI50: > 100 µM (inactive)
[12]
  GI50: > 100 µM
[13]
  GI50: > 100 µM (inactive)
[14]
  GI50: > 100 µM (inactive)
[15]
  GI50: > 100 µM (inactive)
[16]
  GI50: > 100 µM (inactive)
[17]
  GI50: > 100 µM (inactive)
[18]
  GI50: > 100 µM (inactive)
[19]
  GI50: > 100 µM (inactive)

## COC(=O)[C@]1(c2cc3ccccc3[nH]2)CC2CN(CC(=O)N(C)OC)C1C1OC(C)(C)OC21 (stereo partly drawn)
[1]
  GI50: 45.8 µM (inactive)
[2]
  GI50: 37.5 µM (inactive)
[3]
  GI50: 44.2 µM (inactive)
[4]
  GI50: 54.3 µM (inactive)
[5]
  GI50: 35.2 µM (inactive)
[6]
  GI50: 93.3 µM (inactive)
[7]
  GI50: 39 µM (inactive)
[8]
  GI50: > 100 µM (inactive)
[9]
  GI50: 36.1 µM (inactive)
[10]
  GI50: 59.3 µM (inactive)
[11]
  GI50: 59.7 µM (inactive)
[12]
  GI50: 39.9 µM
[13]
  GI50: > 100 µM (inactive)
[14]
  GI50: > 100 µM (inactive)
[15]
  GI50: 42.7 µM (inactive)
[16]
  GI50: 43 µM (inactive)
[17]
  GI50: 41.6 µM (inactive)
[18]
  GI50: 41.3 µM (inactive)
[19]
  GI50: 83.9 µM (inactive)

## CCC(=O)/C=C/c1ccccc1
[1]
  GI50: 73.3 µM (inactive)
[2]
  GI50: 76.6 µM (inactive)
[3]
  GI50: 33.8 µM (inactive)
[4]
  GI50: 37.9 µM (inactive)
[5]
  GI50: 25.6 µM (inactive)
[6]
  GI50: 32.5 µM (inactive)
[7]
  GI50: 70.3 µM (inactive)
[8]
  GI50: 21.8 µM (inactive)
[9]
  GI50: 73.5 µM (inactive)
[10]
  GI50: 76.9 µM (inactive)
[11]
  GI50: 22.8 µM (inactive)
[12]
  GI50: 35.9 µM
[13]
  GI50: > 100 µM (inactive)
[14]
  GI50: > 100 µM (inactive)
[15]
  GI50: 79.1 µM (inactive)
[16]
  GI50: 32.7 µM (inactive)
[17]
  GI50: 47.6 µM (inactive)
[18]
  GI50: 52.8 µM (inactive)
[19]
  GI50: > 100 µM (inactive)

## O=S(=O)(Nc1nc2ccccc2nc1Nc1ccc2ccccc2c1)c1ccccc1
[1]
  GI50: 20.4 µM (inactive)
[2]
  GI50: 3.61 µM (inactive)
[3]
  GI50: 10.8 µM (inactive)
[4]
  GI50: 5.78 µM (inactive)
[5]
  GI50: 22.5 µM (inactive)
[6]
  GI50: 7.38 µM (inactive)
[7]
  GI50: 7.53 µM (inactive)
[8]
  GI50: 14.3 µM (inactive)
[9]
  GI50: 5.07 µM (inactive)
[10]
  GI50: 9.59 µM (inactive)
[11]
  GI50: 17.8 µM (inactive)
[12]
  GI50: 11.1 µM
[13]
  GI50: 26.4 µM (inactive)
[14]
  GI50: 5.15 µM (inactive)
[15]
  GI50: 17.3 µM (inactive)
[16]
  GI50: 15.8 µM (inactive)
[17]
  GI50: 5.73 µM (inactive)
[18]
  GI50: 9.04 µM (inactive)
[19]
  GI50: 10.7 µM (inactive)
